Data from ChEMBL document CHEMBL1128776, “Palladium-catalyzed synthesis of (E)-5-(2-acylvinyl)-2-deoxyuridines and their antiviral and cytotoxic activities” (Bioorg Med Chem Lett, 1995).
Converted amounts (≈) assume the structure as drawn.

Legend:
CCRF-CEM [1] = experiment: 50% effective concentration required to protect CEM cells against the cytopathogenicity of HIV-2; type: functional, cell-based; conditions: Homo sapiens
CCRF-CEM [2] = experiment: Evaluated in vitro for cytostatic activity against CEM cells; type: functional, cell-based; conditions: Homo sapiens
E6SM [3] = experiment: In vitro antiviral activity in E6 cell cultures against herpes simplex virus type 1 (HSV-1) TK- B2006; type: functional; conditions: Homo sapiens
E6SM [4] = experiment: Minimum cytotoxic concentration against E6SM cells; type: functional; conditions: Homo sapiens
E6SM [5] = experiment: In vitro antiviral activity in E6 cell cultures against herpes simplex virus type 1 (HSV-1) TK- VMW 1837; type: functional; conditions: Homo sapiens
E6SM [6] = experiment: In vitro antiviral activity in E6 cell cultures against herpes simplex virus type 1 (HSV-1) strain KOS; type: functional; conditions: Homo sapiens
E6SM [7] = experiment: In vitro antiviral activity in E6 cell cultures against herpes simplex virus type 2 (HSV-2) strain G; type: functional; conditions: Homo sapiens
E6SM [8] = experiment: In vitro antiviral activity in E6 cell cultures against vaccinia virus (VV); type: functional; conditions: Homo sapiens
E6SM [9] = experiment: In vitro antiviral activity in E6 cell cultures against vesicular stomatitis virus (VSV); type: functional; conditions: Homo sapiens
FM3A = experiment: Evaluated in vitro for cytostatic activity against murine mammary carcinoma cells (FM3A); type: functional, cell-based; conditions: Mus musculus
HEL [10] = experiment: Evaluated in vitro for antiviral activity in human embryonic lung (HEL) cell cultures against TK - VZV strain OKA; type: functional, cell-based
HEL [11] = experiment: Evaluated in vitro for antiviral activity in human embryonic lung (HEL) cell cultures against TK- Varicella-Zoster virus (VZV) strain YS/R; type: functional, cell-based
HEL [12] = experiment: Evaluated in vitro for antiviral activity in human embryonic lung (HEL) cell cultures against cytomegalovirus (CMV) strain Davis; type: functional, cell-based
HEL [13] = experiment: Evaluated in vitro for antiviral activity in human embryonic lung (HEL) cell cultures against Varicella-Zoster virus (VZV) strain YS; type: functional, cell-based
HEL [14] = experiment: Cytotoxic concentration required to reduce cell growth HEL cells (after 3 days) by 50 %; type: functional; conditions: Homo sapiens, 72 h
HEL [15] = experiment: Minimum cytotoxic concentration against human embryonic lung (HEL) cells; type: functional
HEL [16] = experiment: Evaluated in vitro for antiviral activity in human embryonic lung (HEL) cell cultures against TK + VZV strain OKA; type: functional, cell-based
HEL [17] = experiment: Evaluated in vitro for antiviral activity in HeLa cell cultures against polio virus type 1; type: functional; conditions: Homo sapiens
HEL [18] = experiment: Evaluated in vitro for antiviral activity in HeLa cell cultures against vesicular stomatitis virus (VSV); type: functional; conditions: Homo sapiens
HEL [19] = experiment: (§1) Evaluated in vitro for antiviral activity in human embryonic lung (HEL) cell cultures against cytomegalovirus (CMV) strain AD-169; type: functional
HeLa = experiment: Minimum cytotoxic concentration against HeLa cells; type: functional; conditions: Homo sapiens
MOLT-4 = experiment: Evaluated in vitro for cytostatic activity against human T-lymphocyte cells (Molt 4/C8); type: functional, cell-based
Vero [20] = experiment: Minimum cytotoxic concentration against vero cells; type: functional; conditions: Chlorocebus sabaeus
Vero [21] = experiment: Evaluated in vitro for antiviral activity in vero cell cultures against Coxsackie virus type B4; type: functional; conditions: Chlorocebus sabaeus
Vero [22] = experiment: Evaluated in vitro for antiviral activity in vero cell cultures against Parainfluenza virus type 3; type: functional; conditions: Chlorocebus sabaeus
Vero [23] = experiment: Evaluated in vitro for antiviral activity in vero cell cultures against Reovirus type 1; type: functional; conditions: Chlorocebus sabaeus
Vero [24] = experiment: Evaluated in vitro for antiviral activity in vero cell cultures against forest virus; type: functional; conditions: Chlorocebus sabaeus
Vero [25] = experiment: Evaluated in vitro for antiviral activity in vero cell cultures against Sindbis virus; type: functional; conditions: Chlorocebus sabaeus
L1210 = experiment: Evaluated in vitro for cytostatic activity against murine leukemia cells (L1210); type: functional, cell-based; conditions: Mus musculus
CCRF-CEM [26] = experiment: 50% effective concentration required to protect CEM cells against the cytopathogenicity of HIV-1; type: functional, cell-based; conditions: Homo sapiens
HEL [27] = experiment: Evaluated in vitro for antiviral activity in human embryonic lung (HEL) cell cultures against TK- VZV strain 07/1; type: functional, cell-based
HEL [28] = experiment: Evaluated in vitro for antiviral activity in human embryonic lung (HEL) cell cultures against TK+ VZV strain OKA; type: functional, cell-based
HEL [29] = experiment: Evaluated in vitro for antiviral activity in human embryonic lung (HEL) cell cultures against TK+ Varicella-Zoster virus (VZV) strain YS; type: functional, cell-based
HEL [30] = experiment: as §1; type: functional, cell-based
E6SM [31] = experiment: Evaluated in vitro for its antiviral activity in E6 cell cultures against herpes simplex virus type 1 (HSV-1) TK- B2006; type: functional; conditions: Homo sapiens
E6SM [32] = experiment: Evaluated in vitro for its antiviral activity in E6 cell cultures against herpes simplex virus type 1 (HSV-1) TK- VMW 1837; type: functional; conditions: Homo sapiens
E6SM [33] = experiment: Evaluated in vitro for its antiviral activity in E6 cell cultures against herpes simplex virus type 1 (HSV-1) strain KOS; type: functional; conditions: Homo sapiens
E6SM [34] = experiment: Evaluated in vitro for its antiviral activity in E6 cell cultures against herpes simplex virus type 2 (HSV-2) strain G; type: functional; conditions: Homo sapiens
E6SM [35] = experiment: Evaluated in vitro for its antiviral activity in E6 cell cultures against vaccinia virus (VV); type: functional; conditions: Homo sapiens
E6SM [36] = experiment: Evaluated in vitro for its antiviral activity in E6 cell cultures against vesicular stomatitis virus (VSV); type: functional; conditions: Homo sapiens
HEL [37] = experiment: Evaluated in vitro for antiviral activity in human embryonic lung (HEL) cell cultures against […] TK- strain 07/1; type: functional, cell-based

O=C(/C=C/c1cn([C@H]2C[C@H](O)[C@@H](CO)O2)c(=O)[nH]c1=O)c1ccccc1
EC50 (CCRF-CEM [1]): > 20 µg/mL | IC50 (CCRF-CEM [2]): 24 µg/mL (≈ 67 µM) | MIC (E6SM [3]): > 10 µg/mL | MCC (E6SM [4]): 40 µg/mL | MIC (E6SM [5]): > 10 µg/mL | MIC (E6SM [6]): > 10 µg/mL | MIC (E6SM [7]): > 10 µg/mL | MIC (E6SM [8]): > 10 µg/mL | MIC (E6SM [9]): > 10 µg/mL | IC50 (FM3A): 32 µg/mL (≈ 89.3 µM) | IC50 (HEL [10]): > 20 µg/mL | IC50 (HEL [11]): > 20 µg/mL | IC50 (HEL [12]): > 20 µg/mL | IC50 (HEL [13]): > 20 µg/mL | CC50 (HEL [14]): 140 µg/mL (≈ 391 µM) | MCC (HEL [15]): 50 µg/mL | IC50 (HEL [16]): > 20 µg/mL | MIC (HEL [17]): > 100 µg/mL | MIC (HEL [18]): 70 µg/mL (≈ 195 µM) | MIC (HEL [19]): > 20 µg/mL | MCC (HeLa): 20 µg/mL | IC50 (MOLT-4): 23 µg/mL (≈ 64.2 µM) | MCC (Vero [20]): 400 µg/mL | MIC (Vero [21]): > 200 µg/mL | MIC (Vero [22]): > 200 µg/mL | MIC (Vero [23]): > 200 µg/mL | MIC (Vero [24]): > 200 µg/mL | MIC (Vero [25]): > 200 µg/mL | IC50 (L1210): 30 µg/mL (≈ 83.7 µM) | EC50 (CCRF-CEM [26]): > 20 µg/mL

COc1ccc(C(=O)/C=C/c2cn([C@H]3C[C@H](O)[C@@H](CO)O3)c(=O)[nH]c2=O)cc1
EC50 (CCRF-CEM [1]): > 40 µg/mL | IC50 (CCRF-CEM [2]): > 100 µg/mL | MIC (E6SM [3]): > 10 µg/mL | MCC (E6SM [4]): 40 µg/mL | MIC (E6SM [5]): > 10 µg/mL | MIC (E6SM [6]): > 10 µg/mL | MIC (E6SM [7]): > 10 µg/mL | MIC (E6SM [8]): > 10 µg/mL | MIC (E6SM [9]): > 10 µg/mL | IC50 (FM3A): > 100 µg/mL | IC50 (HEL [27]): > 20 µg/mL | IC50 (HEL [11]): > 20 µg/mL | IC50 (HEL [12]): > 5 µg/mL | IC50 (HEL [13]): > 20 µg/mL | CC50 (HEL [14]): > 200 µg/mL | MCC (HEL [15]): 20 µg/mL | MIC (HEL [17]): > 100 µg/mL | MIC (HEL [18]): > 100 µg/mL | MIC (HEL [19]): > 5 µg/mL | MCC (HeLa): 20 µg/mL | IC50 (MOLT-4): > 100 µg/mL | MCC (Vero [20]): 100 µg/mL | MIC (Vero [21]): > 40 µg/mL | MIC (Vero [22]): > 40 µg/mL | MIC (Vero [23]): > 40 µg/mL | MIC (Vero [24]): > 40 µg/mL | MIC (Vero [25]): > 40 µg/mL | IC50 (HEL [28]): > 20 µg/mL | IC50 (L1210): > 100 µg/mL | EC50 (CCRF-CEM [26]): > 40 µg/mL

Nc1ccn(C[C@@H](CO)OCP(=O)(O)O)c(=O)n1.O.O [CIDOFOVIR]
IC50 (HEL [29]): 0.09 µg/mL | IC50 (HEL [27]): 0.055 µg/mL | IC50 (HEL [11]): 0.05 µg/mL | IC50 (HEL [30]): 0.06 µg/mL | IC50 (HEL [12]): 0.075 µg/mL | CC50 (HEL [14]): > 200 µg/mL | MCC (HEL [15]): > 50 µg/mL | IC50 (HEL [28]): 0.065 µg/mL

O=c1[nH]c(=O)n([C@H]2C[C@H](O)[C@@H](CO)O2)cc1/C=C/Br [BRIVUDINE]
MIC (E6SM [31]): > 400 µg/mL | MIC (E6SM [32]): > 400 µg/mL | MIC (E6SM [33]): 0.02 µg/mL (≈ 0.06 µM) | MIC (E6SM [34]): 100 µg/mL (≈ 300 µM) | MIC (E6SM [35]): 10 µg/mL (≈ 30 µM) | MIC (E6SM [36]): > 400 µg/mL | MCC (E6SM [4]): > 400 µg/mL | IC50 (HEL [11]): > 50 µg/mL | IC50 (HEL [37]): 5 µg/mL (≈ 15 µM) | IC50 (HEL [13]): 0.002 µg/mL (≈ 0.006 µM) | CC50 (HEL [14]): 150 µg/mL (≈ 450 µM) | MCC (HEL [15]): > 50 µg/mL | MIC (HEL [17]): > 400 µg/mL | MIC (HEL [18]): > 400 µg/mL | MCC (HeLa): > 400 µg/mL | MCC (Vero [20]): > 400 µg/mL | MIC (Vero [21]): > 400 µg/mL | MIC (Vero [22]): > 400 µg/mL | MIC (Vero [23]): > 400 µg/mL | MIC (Vero [24]): > 400 µg/mL | MIC (Vero [25]): > 400 µg/mL | IC50 (HEL [28]): 0.0008 µg/mL (≈ 0.0024 µM)
